Test results as given in article PMC9854712 (Antioxidants, 2023).
Where two headings read alike, the source gives them in different places.

Experiments:
HTB-54 cells [1] = test system: HTB-54 cells; set-up: method as in PMID 36257283; conditions: parent NSAIDs; cited from earlier work
HT-29 cells [2] = conditions: cited from earlier work
MCF-7 cells [3] = test system: MCF-7 cells; set-up: method as in PMID 36257283; conditions: parent NSAIDs; cited from earlier work
HTB-54 cells [4] = test: MTT cell viability assay, HTB-54; format: cell-based; conditions: for viability at 10 µM / IC50: HTB-54, 48 h, MTT; for viability at 10 µM: read-out: Cell growth % at 10 µM, HTB-54; for SI (lung): IC50 (BEAS-2B)/IC50 (HTB-54)
Protocol: (§1) The cell lines were obtained from the American Type Culture Collection (ATCC). Five tumor cell lines (MDA-MB-231, MCF-7, HCT116, HTB-54, and DU-145) and two non-tumorigenic cells (184B5 and BEAS-2B) were grown in RPMI 1640 medium (Gibco), and the HT-29 tumor cell line was grown in McCoy’s medium. Both mediums were supplemented with 10% fetal bovine serum (FBS; Gibco) and 1% antibiotics (10.00 units/mL penicillin and 10.00 μg/mL streptomycin; Gibco). Cells were preserved in tissue culture flasks at 37 °C and 5% CO2. The culture medium was replaced every three days.
(§2) The effect of each compound on cell viability was tested using the MTT assay. […] Selected compounds were then tested at seven different concentrations (0.5–100 μM) in MCF-7, HCT116, HT-29, HTB-54, 184B5 and BEAS-2B cells. Cells were seeded at 10^4 per well onto flat-bottomed 96-well culture plates. They were treated with either DMSO or increasing concentration of the corresponding compound for 48 h. Then, they were incubated with 20 μL of 3-(4,5-dimethylthiazol-2-yl)-2,5-diphenyltetrazolium bromide (MTT) (2 mg /mL stock; Aldrich) for 2,5 h and analyzed for their ability to generate a purple formazan dye. These formazan crystals were dissolved in 50 μL of DMSO. The absorbance was measured at a wavelength of 550 nm and the ratio of viable cells was calculated.
(§3) Results are expressed as cell viability % at 10 μM. Selectivity index were calculated as the ratio of the IC50 values determined for the non-malignant and the tumor cells in breast (IC50 (184B5)/IC50 (MCF-7)) and lung (IC50 (BEAS-2B)/IC50 (HTB-54)) cell lines. Data were obtained from at least three independent experiments performed in triplicates.

MDA-MB-231 cells = test: MTT cell viability assay, MDA-MB-231; format: cell-based; conditions: Homo sapiens, MDA-MB-231, 48 h, read-out: Cell growth % at 10 µM, MDA-MB-231
Protocol: as §1, §2, §3

DU-145 cells = test: MTT cell viability assay, DU-145; format: cell-based; conditions: Homo sapiens, DU-145, 48 h, read-out: Cell growth % at 10 µM, DU-145
Protocol: as §1, §2, §3

HT-29 cells [5] = test: MTT cell viability assay, HT-29; format: cell-based; conditions: Homo sapiens; for viability at 10 µM: HT-29, 10 µM, 48 h, read-out: Cell growth % at 10 µM, HT-29; for IC50: HT-29, 48 h
Protocol: as §1, §2, §3

AChE = biological target: T1, AChE (Rattus norvegicus, UniProt P37136); test: AChE inhibition by Ellman's method (rat frontal cortex homogenate); format: biochemical
T1 construct: from tissue; host or cells: frontal cortex of male Wistar rats (crude homogenate)
T1 sequence (P37136 32-614): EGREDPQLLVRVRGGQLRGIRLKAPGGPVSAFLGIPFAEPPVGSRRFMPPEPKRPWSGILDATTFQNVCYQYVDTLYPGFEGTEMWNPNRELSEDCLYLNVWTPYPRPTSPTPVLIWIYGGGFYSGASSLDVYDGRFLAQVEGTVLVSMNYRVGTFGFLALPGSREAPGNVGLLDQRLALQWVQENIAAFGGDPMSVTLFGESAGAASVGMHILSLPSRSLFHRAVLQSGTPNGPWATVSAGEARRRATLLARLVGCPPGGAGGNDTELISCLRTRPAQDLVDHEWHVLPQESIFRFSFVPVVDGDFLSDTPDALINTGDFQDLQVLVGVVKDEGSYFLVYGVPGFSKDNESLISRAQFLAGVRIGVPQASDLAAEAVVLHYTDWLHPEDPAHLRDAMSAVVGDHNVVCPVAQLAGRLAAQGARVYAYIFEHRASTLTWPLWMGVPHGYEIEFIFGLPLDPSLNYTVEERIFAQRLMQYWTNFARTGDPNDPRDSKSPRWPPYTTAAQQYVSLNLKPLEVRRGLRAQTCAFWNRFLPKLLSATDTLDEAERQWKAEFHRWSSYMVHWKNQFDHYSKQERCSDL
Protocol: Frontal cortex tissue obtained from male Wistar rats was homogenized in 39 volumes of 75 mM sodium phosphate buffer (pH 7.4). A mixture of 260 μL containing the compounds assessed, acetylthiocholine iodide and 5 μL tissue homogenate was incubated for 8 min. The reaction was then terminated by adding 50 μL 3% (w/v) sodium dodecyl sulphate followed by 50 μL 0.2% (w/v) 5,5′-dithio-bis(2-nitrobenzoic) acid to produce the yellow anion of 5-thio-2-nitro-benzoic-acid. The extent of the color production was measured spectrophotometrically at 405 nm using Multiskan Ex (Thermo Electron Corporation). […] Results are expressed as the mean ± SD and each experiment was repeated three times.

in vitro = conditions: for Papp at 20 h, 500 µg/mL: PAMPA; for Pe ± SD: porcine brain lipid, 20 h, 25 °C; for BBB Permeation (Experimental): class from PAMPA-BBB Pe
Protocol: Franz diffusion cells (Microette 8910130, Hanson Research) were employed to perform this assay. The compounds were dissolved in DMSO at 5 mg/mL and diluted to 500 µg/mL with phosphate-buffered saline (PBS)/EtOH (7:3) to make a stock solution. A total of 10 µL of porcine brain lipid (PBL) diluted in dodecane solution (20 mg/mL) was spread onto a PVDF membrane that was placed between the donor and acceptor compartments, forming a sandwich structure. Then, 4.5 mL of PBS/EtOH (7:3) was added to the acceptor compartment and 700 µL of the stock solution was added to the donor cell. […] The concentration of the compound was calculated from the standard curve and expressed as permeability (Pe) by the following formula [84]:Permeability (cm/s): Pe = {−ln [1 − CA(t)/Ceq]}/[A ∗ (1/VD + 1/VA) ∗ t]
A = filter area ([…]), VD = donor cell volume (0.7 mL), VA = acceptor cell volume (4.5 mL), t = incubation time, CA (t) = compound concentration in acceptor cell at time t, CD (t) = compound concentration in donor cell at time t, and Ceq = [CD(t) ∗ VD + […] ∗ VA]/(VD + VA).
Every sample was analyzed at least in duplicate and the data were reported as mean ± SD.

HCT116 cells = test: MTT cell viability assay, HCT116; format: cell-based; conditions: Homo sapiens, HCT-116, 48 h
Protocol: as §1, §2, §3

MCF-7 cells [6] = test: MTT cell viability assay, MCF-7; format: cell-based; conditions: for IC50: Homo sapiens, MCF7, MTT, 48 h; for SI (breast): IC50 (184B5)/IC50 (MCF-7)
Protocol: as §1, §2, §3

BEAS-2B cells = test: MTT cell viability assay, BEAS-2B (non-tumorigenic); format: cell-based; conditions: Homo sapiens, 48 h, nonmalignant bronchial epithelium
Protocol: as §1, §2, §3

184B5 cells = test: MTT cell viability assay, 184B5 (non-tumorigenic); format: cell-based; conditions: Homo sapiens, 48 h, nonmalignant mammary gland
Protocol: as §1, §2, §3

[7] = test system: HTB-54, DU-145, HT-29 and MDA-MB-231 cancer cell lines; test: cells; format: cell-based; conditions: against the panel of the four cancer cell lines
Protocol: as §1, §2
As a first approach, all the compounds were tested in vitro against lung (HTB-54), prostatic (DU-145), colon (HT-29), and triple-negative breast (MDA-MB-231) cancer cell lines at two concentrations (50 and 10 µM) for 48 h. Then, the MTT colorimetric assay was used to evaluate cell proliferation after the treatment. The data are expressed as the percentage of cell growth ± SD in at least three independent experiments performed in quadruplicates (Table S1).

[8] = test system: panel of 60 human tumor cell lines; set-up: method as in PMID 19549304; conditions: same cell line panel; cited from earlier work

| SMILES | viability at 10 µM (HTB-54 cells [4]) | viability at 10 µM (MDA-MB-231 cells) | viability at 10 µM (DU-145 cells) | viability at 10 µM (HT-29 cells [5]) | inhibition at 1 µM (AChE; at 10^−6 M, Ellman's method) | further results |
| --- | --- | --- | --- | --- | --- | --- |
| COc1ccc2cc([C@H](C)C(=O)O)ccc2c1 [Naproxen, (2S)-2-(6-methoxynaphtalen-2-yl) propanoic acid] |  |  |  |  |  | IC50 (HTB-54 cells [1]): > 100 µM; IC50 (HT-29 cells [2]; parent NSAIDs): > 100 µM; IC50 (MCF-7 cells [3]): > 100 µM |
| C=CC[Se]C(=O)c1ccccc1O [Compound 13a, Se-allyl 2-hydroxybenzoselenoate] | 40.9 ± 4.9% | 77.1 ± 12.6% | 29.5 ± 4.3% | 88.8 ± 8.6% | 51.8 ± 4% | IC50 (AChE): 5.2 ± 2.3 µM; stability during the PAMPA-BBB experiment (in vitro; observation in words): signs of degradation |
| C=CC[Se]C(=O)C(C)c1ccc(CC(C)C)cc1 (stereo not shown) [Compound 15a] | 38 ± 7.1% | 38 ± 5.4% | 19.1 ± 7% | 49 ± 7.2% | 19.3 ± 0.1% | IC50 (HTB-54 cells [4]): 23.5 ± 5.8 µM; SI (lung) (HTB-54 cells [4]): 0.5; IC50 (HT-29 cells [5]): 9.2 ± 0.7 µM; IC50 (HCT116 cells): 10.2 ± 0.1 µM; IC50 (MCF-7 cells [6]): 11.2 ± 0.2 µM; SI (breast) (MCF-7 cells [6]): 1.1; IC50 (BEAS-2B cells): 11.1 ± 2.6 µM; IC50 (184B5 cells): 11.5 ± 1.4 µM; viability at 10 µM [7]: < 55% |
| COc1ccc2c3c1O[C@H]1C[C@@H](O)C=C[C@@]31CCN(C)C2 [Galantamine, galantamine, reference compound] |  |  |  |  |  | Papp at 20 h, 500 µg/mL (in vitro): 12.3 ± 3.1 ×10⁻⁶ cm/s; Pe ± SD (in vitro; PAMPA-BBB): 12.27 ×10⁻⁶ cm/s; BBB Permeation (Experimental) (in vitro): High (High BBB permeation predicted; Pe (10^−6 cm s^−1) > 4.0) |
| CC(C)Cc1ccc(C(C)C(=O)O)cc1 (stereo not shown) [Ibuprofen, 2-(4-isobutylphenyl) propanoic acid] |  |  |  |  |  | IC50 (HT-29 cells [2]; parent NSAID): > 50 µM |
| O=C1[O][Pt]2([NH][C@@H]3CCCC[C@H]3[NH]2)[O]C1=O [oxaliplatin] |  |  |  |  |  | GI50 [8]: 2.89 µM |
| COc1cc2ncnc(Nc3ccc(F)c(Cl)c3)c2cc1OCCCN1CCOCC1 [gefitinib] |  |  |  |  |  | GI50 [8]: 3.24 µM |
| C#CC[Se]C(=O)[C@@H](C)c1ccc2cc(OC)ccc2c1 [Compound 16b, Se-prop-2-ynyl (S)-2-(6-methoxynaphthalen-2-yl)propaneselenoate] | > 100% | 29.8 ± 9.6% | 66.4 ± 4.4% | 65.7 ± 10% | 16.2 ± 2.3% |  |
| C=CC[Se]C(=O)c1ccno1 [Compound 12a, Se-allyl isoxazole-5-carboselenoate] | 95.5 ± 5.9% | 96.8 ± 15.8% | 62.7 ± 4.7% | 70.7 ± 10.7% | 4.2 ± 6.7% |  |
| C=CC[Se]C(=O)c1ccco1 [Compound 11a, Se-allyl 4-furan-2-carboselenoate] | 30.7 ± 6.2% | 34.1 ± 10.6% | 35.3 ± 5.8% | 79.8 ± 16.3% | 18.6 ± 2.8% |  |
| C#CC[Se]C(=O)c1cccnc1Cl [Compound 8b, Se-prop-2-ynyl 2-chloropyridine-3-carboselenoate] | 99.4 ± 16.2% | 92.9 ± 16.5% | 77.1 ± 13.9% | 87.7 ± 10.1% | 17.1 ± 10.1% |  |
| O=c1[nH]cc(F)c(=O)[nH]1 [5-fluorouracil] |  |  |  |  |  | GI50 [8]: 57.5 µM |
| C#CC[Se]C(=O)C(C)c1ccc(CC(C)C)cc1 (stereo not shown) [Compound 15b, Se-prop-2-ynyl 2-(4-isobutylphenyl)propaneselenoate] | 95.6 ± 5.7% | 59.7 ± 15.7% | 34.7 ± 6.3% | 59.3 ± 4% | 8.5 ± 11.1% |  |
| C=CC[Se]C(=O)c1sccc1Cl [Compound 10a, Se-allyl 3-chlorothiophene-2-carboselenoate] | 27.1 ± 11.2% | 41.3 ± 3.5% | 33.4 ± 6.4% | 61.5 ± 17.6% | 42.5% | IC50 (AChE): 2.4 ± 1.2 µM; % AChE Inhibition (AChE; at 10^−6 M, Ellman's method): 42.5 ± 6.4%; Papp at 20 h, 500 µg/mL (in vitro): 38.6 ± 1.3 ×10⁻⁶ cm/s; fold higher Pe compared to galantamine (in vitro; PAMPA-BBB): 3 fold; Pe ± SD (in vitro; PAMPA-BBB): 38.63 ×10⁻⁶ cm/s; BBB Permeation (Experimental) (in vitro): High (High BBB permeation predicted; Pe (10^−6 cm s^−1) > 4.0) |
| C#CC[Se]C(=O)c1ccccc1OC(C)=O [Compound 14b, 2-(prop-2-ynylselanyl)carbonylphenylacetate] | 78.9 ± 9% | 52.3 ± 7.1% | 25.5 ± 6.2% | 65.6 ± 7.3% | 21.1 ± 5.2% |  |
| C=CC[Se]C(=O)C(C)c1ccc2cc(OC)ccc2c1 [Compound 16a, Se-allyl (S)-2-(6-methoxynaphtalen-2-yl)propaneselenoate] | 30.9 ± 6.7% | 33.8 ± 5.6% | 18.8 ± 6.3% | 49.9 ± 5.6% | 20.3 ± 4.2% | IC50 (HTB-54 cells [4]): 9.9 ± 0.3 µM; SI (lung) (HTB-54 cells [4]): 1.5; IC50 (HT-29 cells [5]): 9.4 ± 0.6 µM; IC50 (HCT116 cells): 27.1 ± 2.7 µM; IC50 (MCF-7 cells [6]): 10.9 ± 1.3 µM; SI (breast) (MCF-7 cells [6]): 1.0; IC50 (BEAS-2B cells): 14.7 ± 8.7 µM; IC50 (184B5 cells): 11.1 ± 1.1 µM; viability at 10 µM [7]: < 55% |
| C=CC[Se]C(=O)c1cccnc1Cl [Compound 8a, Se-allyl 2-chloropyridine-3-carboselenoate] | 25.8 ± 5.2% | 37.1 ± 4.7% | 49.5 ± 6.6% | 62.2 ± 16.1% | 6.3 ± 4.1% |  |
